Columns and labels:
PANC-1 cells = conditions: cited from earlier work
pancreatic cancer = conditions: cited from earlier work
[1] = test system: pancreatic tumor cell line MIA PaCa2; test: MTT assay in 3-dimentional tumor model (HuBiogel); format: cell-based; conditions: MIA PaCa2 3-D tumor beads
Method: (§1) The compound sodium trans-[tetrachlorobis(1H-indazole)ruthenate(III)] was tested in a 3-dimentional tumor model derived from pancreatic tumor cell line MIA PaCa2. Specifically, cells were trypsinized, washed, counted by trypan blue exclusion. Tumor beads were then prepared by mixing 20,000 cells/10 μl of HuBiogel (4 mg/mL) (See U.S. patent application Ser. No. 10/546,506, which is incorporated herein by reference). The 3-D tumor beads were cultivated for 72 hours in multi-well plates with complete media (10% FBS) in a 37° C. incubator+5% CO2. Mini-tumors were treated with various concentrations of the test compound sodium trans-[tetrachlorobis(1H-indazole)ruthenate(III)] in media (final 0.2-0.3% DMSO) or control (DMSO). Repeated drug treatment was done by removing the culture media and replacing with fresh media with drug compound or DMSO. On Day 3, MTT assay and live-cell staining with Calcein AM were performed (5 beads/assay set).
(§2) Statistical analysis of data sets (Average, T-test, GI-50) was performed using MS-Excel program.

[2] = test system: pancreatic tumor cell line MIA PaCa2; test: live-cell staining with Calcein AM in 3-dimentional tumor model (HuBiogel); format: cell-based; conditions: MIA PaCa2 3-D tumor beads, Day 3
Method: as §1, §2

Capan-1 = conditions: Capan-1, 72 hours post-treatment, MTT
Method: (§3) To test the activities of sodium trans-[tetrachlorobis(1H-indazole)ruthenate(III)], ATCC's MTT Cell Proliferation Assay® was performed using human pancreatic cancer cell lines PANC-1 and Capan-1. Stock cultures were allowed to grow to 70-80% confluence for this study. The anti-proliferative activity of sodium trans-[tetrachlorobis(1H-indazole)ruthenate(III)], against the indicated cell lines was evaluated in vitro using the ATCC's MTT Cell Proliferation Assay (Catalog No. 30-1010K). PANC-1 cells were grown in DMEM medium with 10% FBS and 1% pen/strep/glutamine. Capan-1 cells were grown using IMDM medium 20% FBS and 1% of pen/strep/glutamine. Panc 1 and Capan-1 cell plates were seeded with 6000 cells/well and 15,000 cells/well, respectively, and treated with sodium trans-[tetrachlorobis(1H-indazole)ruthenate(III)] at 1,000 μM, or a series of 4× dilutions thereof (250 μM, 62.5 μM, etc.). 100 μl of medium was removed from each well at 72 hours post-treatment and MTT reagent was added to each well. The plates were incubated plate at 37° C. for 4 hours and then 100 μl of detergent was added. The plates were left overnight at room temperature in the dark and was read on a plate reader using SoftMax® Pro (version 5.2, Molecular Devices).
(§4) The absorbance data was analyzed as follows: Absorbance values were converted to Percent of Control and plotted against test agent concentrations for IC50 calculations using SoftMax® Pro (version 5.2, Molecular Devices). The plate blank signal average was subtracted from all wells prior to calculating the Percent of Control. Percent of Control values were calculated by dividing the absorbance values for each test well by the No Drug Control average (column 11 values; cells+vehicle control) and multiplying by 100. Plots of Compound Concentration versus Percent of Control were analyzed using the 4-parameter equation to obtain IC50 values and other parameters that describe the sigmoidal dose response curve.
(§5) The IC50 value for the test agents was estimated by curve-fitting the data using the following four parameter-logistic equation: […]

PANC-1 = test system: PANC-1
Method: as §3, §4, §5

SW480 = conditions: colon cancer cell line SW480; cited from earlier work
HT29 = conditions: colon cancer cell line HT29; cited from earlier work

## Nc1ccn([C@@H]2O[C@H](CO)[C@@H](O)C2(F)F)c(=O)n1 [gemcitabine]
PANC-1 cells
  sensitivity of PANC-1 cells to the drug: resistant
Pancreatic cancer; weekly intravenous administration
  efficacy in pancreatic cancer: effective

## C#Cc1cccc(Nc2ncnc3cc(OCCOC)c(OCCOC)cc23)c1 [erlotinib]
PANC-1 cells
  sensitivity of PANC-1 cells to the drug: resistant
Pancreatic cancer; erlotinib in combination with gemcitabine, advanced-stage pancreatic cancer patients
  median overall survival benefit: less than four weeks

## [Cl][Ru-]([Cl])([Cl])[Cl].[Na+].c1ccc2[nH]ncc2c1.c1ccc2[nH]ncc2c1 [sodium trans-[tetrachlorobis(1H-indazole)ruthenate(III)]]
[1]; Day 3, FIG. 1
  tumor proliferation activity (MTT): significantly inhibited tumor proliferation activity
[1]; MTT assay on Day 3, read-out: average GI-50 (the drug concentration required for growth inhibition at 50%)
  GI50: 35.7 µM
[2]
  tumor killing in live-cell staining/image analysis: dose-dependent tumor killing effective
Capan-1
  IC50: 45.2 µM
PANC-1; PANC-1, 72 hours post-treatment, MTT
  IC50: 30.6 µM
PANC-1; PANC-1 cells
  activity in cells resistant to gemcitabine and erlotinib: active
SW480
  killing tumor cells: effective in killing tumor cells
HT29
  killing tumor cells: effective in killing tumor cells

## [Cl-].[Cl-].[Cl-].[Cl-].[Ru+3].c1ccc2[nH][nH+]cc2c1.c1ccc2[nH]ncc2c1.c1ccc2[nH]ncc2c1 [Indazolium trans-[tetrachlorobis(1H-indazole)ruthenate(III)], reference compound]
SW480
  killing tumor cells: effective in killing tumor cells
HT29
  killing tumor cells: effective in killing tumor cells

Reference: patent US20130190285A1, “METHOD OF TREATING PANCREATIC CANCER” (Niiki Pharma Inc., priority 2009, published 2013)
